Measured values as given in patent US11319289B2, “5-hydroxy pyridine-based compound for use as P2X1 and P2X3 receptor antagonist and pharmaceutical composition comprising same” (GWANGJU INSTITUTE OF SCIENCE AND TECHNOLOGY, priority 2017, dated 2022).
“Also recorded” adds a separate entry of the source.

Columns and labels:
[1] = molecular target: T1, mouse P2X1 receptor (mP2X1) (Mus musculus, UniProt P51576); assay: Two-electrode voltage clamp assay, recombinant mP2X1 receptor in Xenopus oocytes; assay type: cell-based; conditions: 10 μM compound, 2 μM ATP, mean±SEM n≥3 (footnote c), read-out: mP2X1 % inhibitory effect at 10 μM
T1 construct: expressed in transfected cells; host or cells: Xenopus oocytes (cRNA microinjection)
T1 sequence (P51576 1-399): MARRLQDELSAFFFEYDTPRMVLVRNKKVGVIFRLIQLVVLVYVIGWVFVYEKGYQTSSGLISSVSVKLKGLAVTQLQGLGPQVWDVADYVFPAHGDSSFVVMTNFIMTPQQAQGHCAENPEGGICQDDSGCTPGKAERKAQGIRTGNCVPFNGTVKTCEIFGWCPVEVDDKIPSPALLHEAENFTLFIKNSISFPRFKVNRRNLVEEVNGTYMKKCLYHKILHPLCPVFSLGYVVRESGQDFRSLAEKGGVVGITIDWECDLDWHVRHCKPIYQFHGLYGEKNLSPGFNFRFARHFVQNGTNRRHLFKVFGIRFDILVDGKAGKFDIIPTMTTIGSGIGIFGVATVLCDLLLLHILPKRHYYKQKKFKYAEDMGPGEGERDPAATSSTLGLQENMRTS
In short: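 Xenopus oocytes injected with mP2X1 or hP2X3 cRNA; ATP-activated currents recorded by two-electrode voltage clamp at Vh=−70 mV in Ringer's solution (pH 7.5, 18° C.). Compounds applied 20 min before 2 μM ATP; IC50 from Hill plots of ATP-evoked current inhibition, mean±SEM (n≥3).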

[2] = system: neuropathic pain (NeP) animal models; assay: Efficacy in neuropathic pain (NeP) animal models, model not specified; assay type: in vivo, rat
Method: 3-1. Evaluation of In Vivo Efficacy
The antiallodynic effects (mechanical allodynia) were evaluated using rats according to a previously reported protocol. In order to evaluate the withdrawal threshold, rats (naive, SNL and CIPN) were placed on a plastic mesh floor of individual plastic cages. The rats were allowed to acclimate to the environment for 30 minutes and examined after intrathecal or intravenous administration to the caudal vein. The control group received the same volume of vehicle (intrathecal administration of saline or DMSO, intravenous administration of DMSO:PEG:PBS=1:6:3 v/v %) as the experimental groups. Evaluation of the mechanical withdrawal threshold was measured in responses to the application of calibrated von Frey filaments (Stoelting, Wood Dale, Ill., USA) to the hind paw of the rats through the holes on the mesh floor underneath the cage using the ‘up and down method’. A series of eight von Frey filaments (0.4, 0.7, 1.2, 2.0, 3.6, 5.5, 8.5, and 15 g) was applied perpendicular to the sole of the hind paw for 5 seconds while the head was bent. Active withdrawal or flinching of the paw was considered as a positive reaction. The absence of response in the rats, when a pressure was applied to 15 g von Frey filament, was used as a cut-off value. Only rats with definite allodynia (i.e., mechanical withdrawal threshold: less than 4 g after SNL or less than 5 g after CIPN) were tested. The rats after termination of the experiments were euthanized through an overdose of sevoflurane. The withdrawal threshold data for the von Frey filament test was calculated as % MPE (maximum possible effect) based on the following Calculation Equation: % MPE=[(Post-drug threshold−Post-injured baseline threshold)/(Cutoff threshold−post-injured baseline threshold)×100]. Dose-response data were analyzed using Scheffe's post hoc test and one-way analysis of variance (ANOVA).

[3] = Metabolic stability in microsomes, human; assay type: in vitro ADME; conditions: 30 min
[4] = Metabolic stability in microsomes, rat; assay type: in vitro ADME; conditions: for Metabolic stability, microsomes, Rat: 30 min
Method: Metabolic stability of the compounds was evaluated in rat liver microsomes (RLM). Microsomes (0.5 mg/ml) and test compound (1 μM) in 100 mM potassium phosphate buffer (pH 7.4) were preincubated by shaking at 37° C. for 5 min (100 rpm). Metabolic reactions were initiated by adding an NADPH production system (60 mM potassium phosphate buffer at pH 7.4, 1.3 mM NADP, 3.3 mM glucose-6-phosphate, 0.3 μL glucose-6-phosphate dehydrogenase (0.4 U/mL), and 3.3 mM magnesium chloride) and incubating at 37° C. 100 μL aliquots were recovered at 0, 10, 20, 30 and 60 minutes, and the reaction was terminated by the addition of two volumes of ice-cold acetonitrile (ACN). After mixing by vortex and centrifugation (14000 rpm) for 15 minutes at 4° C., the supernatant was transferred to liquid chromatography vials and analyzed by an LC-MS/MS system.

[5] = Metabolic stability in microsomes, mouse; assay type: in vitro ADME; conditions: 30 min

Structure (SMILES)	inhibition at 10 µM [1]	in vivo efficacy in early animal experiments ([2]; early animal experiments)	Metabolic stability, microsomes, Human [3]	Metabolic stability, microsomes, Rat [4]	Metabolic stability, microsomes, Mouse [5]	metabolic stability ([4]; after 30 minutes, species not given)	antiallodynic effect upon intraperitoneal and intravenous administration ([2]; NeP animal models, i.p. and i.v.)	antiallodynic effect upon intramedullary administration ([2]; NeP rats)
CCCc1nc(CCc2ccc(OC)cc2)c(C(=O)O)c(C(=O)O)c1O [Compound 13d, 5-Hydroxy-2-(4-methoxyphenethyl)-6-propylpyridine-3,4-dicarboxylic acid]	42.8 ± 7.4%	weak in vivo efficacy	–	–	–	–	–	–
CCCc1nc(Cc2cccc(Oc3ccccc3)c2)c(C)c(C(=O)OC)c1O [Compound 28, Methyl 3-hydroxy-5-methyl-6-(3-phenoxybenzyl)-2-propylisonicotinate]	–	–	0 % remaining after 30 min	33 % remaining after 30 min	35 % remaining after 30 min	–	–	–
CCCc1nc(Cc2cccc(Oc3ccccc3)c2)c(C)c(C(=O)O)c1O [Compound 29, 3-Hydroxy-5-methyl-6-(3-phenoxybenzyl)-2-propylisonicotinic acid]	23.3 ± 4.8%	–	3 % remaining after 30 min	0 % remaining after 30 min	2 % remaining after 30 min	< 5%	no antiallodynic effect; also recorded: no pharmacological activity was observed; also recorded: did not provide an antiallodynic effect	potent antiallodynic effect
